# Laboratory results published in US20250064762A1, “A SUBSTITUTED AROMATIC DICARBONIC ACID AMIDE AS AN INHIBITOR OF THE FERROPTOSIS SUPPRESSOR PROTEIN-1 (FSP1)” (JULIUS-MAXIMILIANS-UNIVERSITÄT WÜRZBURG, priority 2021, published 2025).
# Entries after “also recorded” stand apart in the source; their conditions may differ.
# Key:
# [1] = test system: HT1080 cells, mouse embryonic fibroblasts (MEFs), Du145 and PC3; experiment: Cell viability (AquaBluer): ferroptosis inducers (FINs) with or without CPBA; assay type: cell-based, human; details: 16 h
# Procedure: (§1) Cells were seeded onto 96-well plates (5,000 cells per well), and treated with serial dilutions of ferroptosis-inducing compounds (erastin, BSO, RSL3, FIN56) or cytotoxic drugs (staurosporine, nocodazole, tunicamycin, paclitaxel, etoposide, menadione, rotenone, FCCP, carboplatin) in the absence or presence of CPBA or iFSP1 (100 μM or 10 μM, respectively; unless stated otherwise) or the DMSO solvent control. Ferroptotic cell death was evaluated by incubating in the absence or presence of liproxstatin-1 (100 nM), ferrostatin-1 (200 nM), or deferoxamine (100 μM). Cell viability was assessed after 16 h using AquaBluer as an indicator of viable cells according to the manufacturer's recommendations (MultiTarget Pharmaceuticals, LLC). Fluorescence (excitation, 540 nm; emission, 590 nm) was analyzed on a Clariostar microplater reader.
# HT1080 cells, mouse embryonic fibroblasts (MEFs, non-transformed, non-immortalized) and human prostate carcinoma cell lines Du145 and PC3 were incubated with serial dilutions of ferroptosis inducers (FINs) erastin, BSO, RSL3 or FIN56 in the absence or presence of CPBA and/or the ferroptosis inhibitor liproxstatin-1 (HT1080, Du145, PC3: 200 μM CPBA, MEF: 100 μM CPBA; lip-1:100 nM), and cell viability was analyzed after 16 h using Aquabluer. […]
# AUC values (AUC FIN+CPBA/AUC FIN+ctrl) were calculated as described above.
# [2] = molecular target: T1, murine PGP (Mus musculus, UniProt Q8CHP8); experiment: In vitro phosphoglycolate phosphatase assay (malachite green); assay type: biochemical
# T1 construct: made in house
# T1 sequence (Q8CHP8 1-321): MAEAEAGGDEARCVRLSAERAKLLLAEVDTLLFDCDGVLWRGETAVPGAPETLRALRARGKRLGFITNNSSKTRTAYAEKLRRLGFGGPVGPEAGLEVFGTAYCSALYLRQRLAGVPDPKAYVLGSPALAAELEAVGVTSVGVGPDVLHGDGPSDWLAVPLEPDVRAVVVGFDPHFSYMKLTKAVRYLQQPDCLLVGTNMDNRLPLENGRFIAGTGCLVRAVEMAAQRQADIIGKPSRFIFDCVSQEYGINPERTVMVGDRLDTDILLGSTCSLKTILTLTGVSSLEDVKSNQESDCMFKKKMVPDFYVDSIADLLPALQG
# Procedure: Recombinant, purified murine phosphoglycolate phosphatase (PGP) was expressed and purified as described (Seifried et al., 2014). Experiments were performed in TNM30 (30 mM triethanolamine, 30 mM NaCl, 5 mM MgCl2; PH 7.5), supplemented with 0.01% (v/v) Triton X-100 and 5 mM dithiothreitol (DTT). Assays were conducted at room temperature in a final reaction volume of 50 μL in 96-well microtiter plates. PGP (5.7 nM) was pre-incubated with the compounds or the DMSO solvent control for 10 min, and enzyme reactions were started by the addition of the substrate phosphoglycolate (PG, 200 μM). Buffer without enzyme served as a background control. Inorganic phosphate release from PG was detected with malachite green solution (Biomol Green; Enzo Life Sciences). The absorbance at 620 nm (A620) was measured on an Envision 2104 multilabel microtiter plate reader (Perkin Elmer Life Sciences). Released phosphate was determined by converting the values to nmol Pi with a phosphate standard curve. Data were analyzed with GraphPad Prism version 7.0.5. For IC50 determinations, loginhibitor versus response was calculated for a Hill slope of −1.
# Free inorganic phosphate released by PG dephosphorylation was quantified using malachite green.
# [3] = test system: IHH, AML12, RAW264.7; experiment: FIN56 toxicity in non-transformed hepatocytes and a monocyte/macrophage cell line; assay type: cell-based; details: CPBA 100 μM, iFSP1 10 μM; 16 h
# Procedure: Cell culture media and supplements were from Thermo Fisher Scientific, unless specified otherwise. Mouse embryonic fibroblasts (MEFs) were generated from Pgp-wildtype (Pgp^fl/fl) or heterozygous Pgp-inactivated mouse embryos (Pgp^fl/D34N) as described (Segerer et al., 2016). […]
# as §1, with “reader. […]” for “reader.”
SMILES,"effect on FIN-induced ferroptosis / cell viability ([1]; FINs erastin, BSO, RSL3 or FIN56, 200 μM CPBA (MEF: 100 μM))","concentration dependence of ferroptosis-sensitization ([1]; HT1080 and PC3 cells, serial dilutions of FINs±CPBA)",inhibition of PGP [2],toxicity of FIN56 in non-transformed cell lines on addition of the compound [3]
"O=C(Nc1ccccc1C(=O)O)c1ccc(Oc2ccc(C(=O)Nc3ccccc3C(=O)O)cc2)cc1 [CPBA, 2-[[4-[4-[(2-carboxyphenyl)carbamoyl]phenoxy]benzoyl]amino]-benzoic acid]",increases the negative effect of FINs on cell viability; also recorded: strongly increases FIN-induced ferroptosis in all cell lines,ferroptosis-sensitization by CPBA is concentration-dependent,inhibitor of PGP,–
"Cc1ccc(-c2c(C#N)c(N)n3c(nc4ccccc43)c2C#N)cc1 [iFSP1, reference compound]",–,–,–,not markedly increased by the addition of CPBA or iFSP1
